Laboratory results: patent US9822114B2, “Tricyclic oxazolidinone antibiotic compounds” (Idorsia Pharmaceuticals Ltd, priority 2008, dated 2017)
Values after ≈ are worked out from the molar mass of the structure shown.

Tested on: M. catarrhalis A894
Experiment: Minimal inhibitory concentration (MIC), microdilution method in cation-adjusted Mueller-Hinton Broth (CLSI M7-A7)
Format: cell-based
Settings: strain A894; for MIC: Moraxella catarrhalis
Description: Minimal inhibitory concentrations (MICs; mg/1) were determined in cation-adjusted Mueller-Hinton Broth by a microdilution method following the description given in “Methods for Dilution Antimicrobial Susceptibility Tests for Bacteria that Grow Aerobically”, Approved standard, 7th ed., Clinical and Laboratory Standards Institute (CLSI) Document M7-A7, Wayne, Pa., USA, 2006.

“(1R,2S)-2-methyl-1-{3-[(S)-2-oxo-3-(3-oxo-3,4-dihydro-2H-benzo[1,4]thiazin-6-yl)-oxazolidin-5-yl]-propylamino}-1,2-dihydro-pyrrolo[3,2,1-ij]quinolin-4-one and (1S,2R)-2-methyl-1-{3-[(S)-2-oxo-3-(3-oxo-3,4-dihydro-2H-benzo[1,4]thiazin-6-yl)-oxazolidin-5-yl]-propylamino}-1,2-dihydro-pyrrolo[3,2,1-ij]quinolin-4-one [Example 167]” was tested, and the “MIC for M. catarrhalis A894” value was “≦0.031 mg/l”.

For `O=C1COc2ccc(N3C[C@@H](CCCN[C@H]4Cn5c(=O)ccc6nccc4c65)OC3=O)cc2N1` [Example 19, (4R)-4-{3-[(R)-2-oxo-3-(3-oxo-3,4-dihydro-2H-benzo[1,4]oxazin-6-yl)-oxazolidin-5-yl]-propylamino}-4,5-dihydro-pyrrolo[3,2,1-de][1,5]naphthyridin-7-one], the MIC was ≤ 0.031 µg/mL.

For `O=C1CSc2ccc(N3C[C@H](CCCNC4Cn5c(=O)ccc6ncc(F)c4c65)OC3=O)cc2N1` (mixture of isomers) [Example 96, (RS)-3-fluoro-4-{3-[(S)-2-oxo-3-(3-oxo-3,4-dihydro-2H-benzo[1,4]thiazin-6-yl)-oxazolidin-5-yl]-propylamino}-4,5-dihydro-pyrrolo[3,2,1-de][1,5]naphthyridin-7-one], the MIC was ≤ 0.031 µg/mL.

With `O=C1CSc2ccc(N3C[C@@H](CCN[C@H]4Cn5c(=O)ccc6ccc(F)c4c65)OC3=O)cc2N1` (racemic) [Example 14, (1RS)-9-fluoro-1-{2-[(RS)-2-oxo-3-(3-oxo-3,4-dihydro-2H-benzo[1,4]thiazin-6-yl)-oxazolidin-5-yl]-ethylamino}-1,2-dihydro-pyrrolo[3,2,1-ij]quinolin-4-one] the MIC was ≤ 0.031 µg/mL.

`C#Cc1ccc2ccc(=O)n3c2c1C(NCCC[C@@H]1CN(c2ccc4c(c2)NC(=O)CS4)C(=O)O1)C3` (mixture of isomers) [Example 180, (RS)-9-ethynyl-1-{3-[(R)-2-oxo-3-(3-oxo-3,4-dihydro-2H-benzo[1,4]thiazin-6-yl)-oxazolidin-5-yl]-propylamino}-1,2-dihydro-pyrrolo[3,2,1-ij]quinolin-4-one] was tested, and the MIC was ≤ 0.031 µg/mL.

`O=C1CSc2ccc(N3C[C@H](CCCN[C@H]4Cn5c(=O)ccc6ccc(F)c4c65)OC3=O)nc2N1` [Example 195, (R)-9-fluoro-1-{3-[(S)-2-oxo-3-(3-oxo-3,4-dihydro-2H-pyrido[3,2-b][1,4]thiazin-6-yl)-oxazolidin-5-yl]-propylamino}-1,2-dihydro-pyrrolo[3,2,1-ij]quinolin-4-one] was tested, and the MIC was ≤ 0.031 µg/mL.

For `O=C1CSc2ccc(N3C[C@H](CCNC[C@]4(O)Cn5c(=O)ccc6nccc4c65)OC3=O)cc2N1` [Example 173, (S)-4-hydroxy-4-({2-[(S)-2-oxo-3-(3-oxo-3,4-dihydro-2H-benzo[1,4]thiazin-6-yl)-oxazolidin-5-yl]-ethylamino}-methyl)-4,5-dihydro-pyrrolo[3,2,1-de][1,5]naphthyridin-7-one], the MIC was 0.125 µg/mL (≈ 0.253 µM).

With `O=C1CSc2ccc(N3C[C@H](CCCN[C@@H]4Cn5c(=O)ccc6ccc(F)c4c65)OC3=O)cc2N1` [Example 130, (S)-9-fluoro-1-{3-[(S)-2-oxo-3-(3-oxo-3,4-dihydro-2H-benzo[1,4]thiazin-6-yl)-oxazolidin-5-yl]-propylamino}-1,2-dihydro-pyrrolo[3,2,1-ij]quinolin-4-one] the MIC was ≤ 0.031 µg/mL.

With `O=C1COc2ccc(N3C[C@H](CCNCC4Cn5c(=O)ccc6cccc4c65)OC3=O)cc2N1` (mixture of isomers) [Example 62, (RS)-1-({2-[(S)-2-oxo-3-(3-oxo-3,4-dihydro-2H-benzo[1,4]oxazin-6-yl)-oxazolidin-5-yl]-ethylamino}-methyl)-1,2-dihydro-pyrrolo[3,2,1-U]quinolin-4-one] the “MIC for M. catarrhalis A894” value was “≦0.031 mg/l”.

In the case of `O=C1CSc2ccc(N3C[C@@H](CCCCN[C@H]4Cn5c(=O)ccc6ccc(F)c4c65)OC3=O)cc2N1` (racemic) [Example 159, (RS)-9-fluoro-1-{4-[(RS)-2-oxo-3-(3-oxo-3,4-dihydro-2H-benzo[1,4]thiazin-6-yl)-oxazolidin-5-yl]-butylamino}-1,2-dihydro-pyrrolo[3,2,1-ij]quinolin-4-one], the MIC is reported as ≤ 0.031 µg/mL.
